Laboratory results published in PubChem BioAssay AID248 (DTP/NCI, 2004).
Several values for one entry are separate records, joined by “and”; a condition that tells them apart may be missing. Equal entries are not always repeated. Toxic doses and inconclusive results are not listed. Cut-off read from the data, not from the text of the source: active = T/C of 150% or more; inactive = T/C below 125%.

System: L1210 leukemia ip in BDF1 mice, survival T/C
Assay: NCI In Vivo Anticancer Drug Screen. Data for tumor model L1210 Leukemia (intraperitoneal) in B6D2F1 (BDF1) mice
Settings: endpoint: mean survival time, higher = longer survival
How it was run: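 Each compound was tested against a transplantable tumor grown in mice. The endpoint was survival, with treated animals benchmarked against vehicle controls as a simple ratio.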

[1] = dose: 100.0 mg/kg/injection, schedule: Q01DX009 (ip), vehicle: saline
[2] = dose: 200.0 mg/kg/injection, schedule: Q01DX009 (ip), vehicle: saline
[3] = dose: 400.0 mg/kg/injection, schedule: Q01DX009 (ip), vehicle: saline
[4] = dose: 100.0 mg/kg/injection, schedule: Q01DX001 (ip), vehicle: saline
[5] = dose: 100.0 mg/kg/injection, schedule: Q04DX003 (ip), vehicle: saline
[6] = dose: 200.0 mg/kg/injection, schedule: Q01DX001 (ip), vehicle: saline
[7] = dose: 100.0 mg/kg/injection, schedule: Q01DX009 (ip), vehicle: Klucel (hydroxypropylcellulose) (HPC)
[8] = dose: 100.0 mg/kg/injection, schedule: Q04DX003 (ip), vehicle: Klucel (hydroxypropylcellulose) (HPC)
[9] = dose: 200.0 mg/kg/injection, schedule: Q01DX009 (ip), vehicle: Klucel (hydroxypropylcellulose) (HPC)
[10] = dose: 200.0 mg/kg/injection, schedule: Q04DX003 (ip), vehicle: Klucel (hydroxypropylcellulose) (HPC)
[11] = dose: 400.0 mg/kg/injection, schedule: Q04DX003 (ip), vehicle: Klucel (hydroxypropylcellulose) (HPC)
[12] = dose: 400.0 mg/kg/injection, schedule: Q01DX001 (ip), vehicle: saline
[13] = dose: 50.0 mg/kg/injection, schedule: Q01DX009 (ip), vehicle: Klucel (hydroxypropylcellulose) (HPC)

Measured: T/C

O=C(c1ccccc1)C(Nc1ccc(Br)cc1)Nc1ccc(Br)cc1
inactive: dose: 100.0 mg/kg/injection, schedule: Q01DX001 (ip), vehicle: carboxymethylcellulose (CMC) 96 % of control | dose: 200.0 mg/kg/injection, schedule: Q01DX001 (ip), vehicle: carboxymethylcellulose (CMC) 102 % of control | dose: 400.0 mg/kg/injection, schedule: Q01DX001 (ip), vehicle: carboxymethylcellulose (CMC) 96 % of control

COP(=S)(OC)N1CC1
inactive: dose: 11.1 mg/kg/injection, schedule: Q01DX Z (ip), vehicle: saline 108 % of control | dose: 16.6 mg/kg/injection, schedule: Q01DX Z (ip), vehicle: saline 100 % of control | dose: 25.0 mg/kg/injection, schedule: Q01DX Z (ip), vehicle: saline 100 % of control

CC(C)N(C(=S)S)C(C)C
inactive: [1] 105 % of control | [2] 102 % of control | [3] 103 % of control

O=S1(=O)C=C(Cl)C(Cl)C1 (stereo unspecified)
inactive: dose: 25.0 mg/kg/injection, schedule: Q01DX009 (ip), vehicle: saline 93 % of control | dose: 50.0 mg/kg/injection, schedule: Q01DX009 (ip), vehicle: saline 86 % of control | dose: 50.0 mg/kg/injection, schedule: Q04DX003 (ip), vehicle: saline 95 % of control | [4] 93 % of control | [5] 92 % of control | [6] 102 % of control

Nc1nccs1
inactive: dose: 0.75 mg/kg/injection, schedule: Q01DX009 (ip), vehicle: carboxymethylcellulose (CMC) 100 % of control | dose: 1.5 mg/kg/injection, schedule: Q01DX009 (ip), vehicle: carboxymethylcellulose (CMC) 103 % of control | dose: 1.5 mg/kg/injection, schedule: Q04DX002 (ip), vehicle: saline with Tween-80 93 % of control | dose: 3.0 mg/kg/injection, schedule: Q01DX009 (ip), vehicle: carboxymethylcellulose (CMC) 100 % of control | dose: 3.0 mg/kg/injection, schedule: Q04DX002 (ip), vehicle: saline with Tween-80 90 % of control | dose: 3.5 mg/kg/injection, schedule: Q04DX002 (ip), vehicle: saline with Tween-80 91 % of control | dose: 6.0 mg/kg/injection, schedule: Q01DX009 (ip), vehicle: carboxymethylcellulose (CMC) 100 % of control | dose: 12.0 mg/kg/injection, schedule: Q01DX009 (ip), vehicle: carboxymethylcellulose (CMC) 103 % of control | dose: 12.0 mg/kg/injection, schedule: Q04DX002 (ip), vehicle: saline with Tween-80 101 % of control and 91 % of control

CCOC(=O)/C(C)=N\Nc1ccc(Cl)cc1
inactive: [7] 106 % of control | [8] 102 % of control | [9] 98 % of control | [10] 98 % of control | dose: 400.0 mg/kg/injection, schedule: Q01DX009 (ip), vehicle: Klucel (hydroxypropylcellulose) (HPC) 98 % of control | [11] 99 % of control

CO/C(Cc1cc(O)cc(O)c1)=N\N
inactive: dose: 100.0 mg/kg/injection, schedule: Q04DX003 (ip), vehicle: saline with Tween-80 93 % of control | dose: 200.0 mg/kg/injection, schedule: Q04DX003 (ip), vehicle: saline with Tween-80 92 % of control | dose: 400.0 mg/kg/injection, schedule: Q04DX003 (ip), vehicle: saline with Tween-80 101 % of control

CN(C)CCC(=O)O
inactive: [1] 92 % of control | dose: 100.0 mg/kg/injection, schedule: Q04DX003 (ip), vehicle: saline sonified 108 % of control | [2] 97 % of control | dose: 200.0 mg/kg/injection, schedule: Q04DX003 (ip), vehicle: saline sonified 105 % of control | [3] 94 % of control | dose: 400.0 mg/kg/injection, schedule: Q04DX003 (ip), vehicle: saline sonified 95 % of control

C[C@]12CCC(=O)C=C1CC[C@H]1[C@@H]3CC[C@](O)(C(=O)CO)[C@@]3(C)CC(=O)[C@@]12SC(N)=O
inactive: dose: 100.0 mg/kg/injection, schedule: Q01DX001 (ip), vehicle: steriod suspending solution 92 % of control | dose: 200.0 mg/kg/injection, schedule: Q01DX001 (ip), vehicle: steriod suspending solution 92 % of control | dose: 400.0 mg/kg/injection, schedule: Q01DX001 (ip), vehicle: steriod suspending solution 104 % of control

CCOP(=S)(OCC)Oc1ccc(Sc2ccc(OP(=S)(OCC)OCC)cc2)cc1
inactive: [4] 101 % of control | [6] 101 % of control | [12] 107 % of control

CC1=CC(C)(N=[N+]=[N-])CC(C)(C)C1 (stereo unspecified)
inactive: dose: 37.5 mg/kg/injection, schedule: Q04DX003 (ip), vehicle: saline 107 % of control | dose: 75.0 mg/kg/injection, schedule: Q01DX001 (ip), vehicle: saline 98 % of control | dose: 75.0 mg/kg/injection, schedule: Q04DX003 (ip), vehicle: saline 100 % of control | dose: 150.0 mg/kg/injection, schedule: Q01DX001 (ip), vehicle: saline 92 % of control | dose: 150.0 mg/kg/injection, schedule: Q04DX003 (ip), vehicle: saline 103 % of control

O=C(Nc1cccc2cccnc12)C(F)(F)F
inactive: dose: 50.0 mg/kg/injection, schedule: Q01DX001 (ip), vehicle: saline 91 % of control | [4] 104 % of control | [6] 91 % of control | [12] 93 % of control

NC(=O)c1cc[n+](-c2ccc([N+](=O)[O-])cc2[N+](=O)[O-])cc1
inactive: [5] 102 % of control | dose: 200.0 mg/kg/injection, schedule: Q04DX003 (ip), vehicle: saline 103 % of control

O=[N+]([O-])/C=C/c1ccc([N+](=O)[O-])cc1
inactive: dose: 6.25 mg/kg/injection, schedule: Q01DX005 (ip), vehicle: saline with Tween-80 110 % of control | dose: 12.5 mg/kg/injection, schedule: Q01DX005 (ip), vehicle: saline with Tween-80 104 % of control | dose: 25.0 mg/kg/injection, schedule: Q01DX005 (ip), vehicle: saline with Tween-80 114 % of control | [13] 93 % of control | [7] 97 % of control | [8] 96 % of control | [10] 104 % of control

CC(C(=O)c1ccc(Cl)cc1)C(O)(C(F)(F)F)C(F)(F)F (stereo unspecified)
inactive: [13] 104 % of control | [7] 104 % of control | [8] 103 % of control | [9] 108 % of control | [10] 101 % of control | [11] 103 % of control

OC(c1ccccc1)(c1ccccc1)C1CCCCC1C(O)(c1ccccc1)c1ccccc1 (stereo unspecified)
inactive: [1] 93 % of control | [2] 93 % of control | [3] 89 % of control

CCC(CC)NC(CC)CO (stereo unspecified)
inactive: dose: 75.0 mg/kg/injection, schedule: Q01DX001 (ip), vehicle: carboxymethylcellulose (CMC) 101 % of control | dose: 150.0 mg/kg/injection, schedule: Q01DX001 (ip), vehicle: carboxymethylcellulose (CMC) 100 % of control

CC(C)CCCC(C)C1CCC2C3CC=C4CC(OCCO)CCC4(C)C3CCC12C (stereo unspecified)
inactive: dose: 100.0 mg/kg/injection, schedule: Q01DX009 (ip), vehicle: other 87 % of control | dose: 200.0 mg/kg/injection, schedule: Q01DX009 (ip), vehicle: other 105 % of control
